The supplement of paper PMC6045584
± gives the standard deviation of the averaged measurements.

Experiments:
[1] = compound: Cn1ncnc1[C@H]1c2n[nH]c(=O)c3cc(F)cc(c23)N[C@@H]1c1ccc(F)cc1 [BMN-673]; test: surviving fraction relative to DMSO-only wells; higher = less growth inhibition; conditions: exposure time: 5 days
Outline: (§1)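 Tumour cell lines were grown to log phase and seeded at 250–500 cells per well in 384-well plates. They were exposed continuously to inhibitors at 0.5, 1, 5, 10, 50, 100, 500 and 1000 nM for five days, beginning 24 hours after seeding. Surviving fraction is CellTiter-Glo luminescence normalised to the median of DMSO-only wells.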

[2] = compound: C[C@@H]1CN(CC(=O)Nc2ccc3c(c2)Cc2cccc(-c4cc(=O)cc(N5CCOCC5)o4)c2S3)C[C@H](C)O1; test: as above; conditions: exposure time: 5 days
Outline: as §1

| Test System | surviving fraction ([1]; 0.5 nM) | surviving fraction ([1]; 1 nM) | surviving fraction ([1]; 5 nM) | surviving fraction ([1]; 10 nM) | surviving fraction ([1]; 50 nM) | surviving fraction ([1]; 100 nM) | surviving fraction ([1]; 500 nM) | surviving fraction ([1]; 1000 nM) | surviving fraction ([2]; 0.5 nM) | surviving fraction ([2]; 1 nM) | surviving fraction ([2]; 5 nM) | surviving fraction ([2]; 10 nM) | surviving fraction ([2]; 50 nM) | surviving fraction ([2]; 100 nM) | surviving fraction ([2]; 500 nM) | surviving fraction ([2]; 1000 nM) |
| --- | --- | --- | --- | --- | --- | --- | --- | --- | --- | --- | --- | --- | --- | --- | --- | --- |
| HCC78 LUNG | 1.06 ± 0.077 | 1 ± 0.097 | 1.04 ± 0.098 | 0.931 ± 0.21 | 0.678 ± 0.19 | 0.47 ± 0.084 | 0.117 ± 0.013 | 0.0383 ± 0.013 | 1.13 ± 0.16 | 0.941 ± 0.26 | 1.07 ± 0.11 | 1.21 ± 0.21 | 1.15 ± 0.17 | 1.41 ± 0.29 | 1.27 ± 0.39 | 1.29 ± 0.013 |
| HCC1806 BREAST | 0.904 ± 0.043 | 0.875 ± 0.021 | 0.451 ± 0.035 | 0.313 ± 0.021 | 0.234 ± 0.0079 | 0.186 ± 0.0061 | 0.171 ± 0.017 | 0.168 ± 0.015 | 1.05 ± 0.14 | 1.07 ± 0.086 | 1.12 ± 0.08 | 1.1 ± 0.035 | 0.959 ± 0.067 | 0.949 ± 0.12 | 0.699 ± 0.065 | 0.477 ± 0.024 |
| SUM149.B1*.S BREAST | 1.11 ± 0.036 | 1.03 ± 0.0064 | 1.05 ± 0.058 | 0.931 ± 0.059 | 0.808 ± 0.055 | 0.739 ± 0.063 | 0.451 ± 0.075 | 0.33 ± 0.052 | 1.07 ± 0.062 | 1.06 ± 0.064 | 1.05 ± 0.025 | 1.03 ± 0.027 | 1.07 ± 0.071 | 1.05 ± 0.016 | 1.08 ± 0.045 | 1.07 ± 0.074 |
| T47D BREAST | 1.01 ± 0.04 | 0.975 ± 0.036 | 0.872 ± 0.051 | 0.82 ± 0.026 | 0.714 ± 0.019 | 0.654 ± 0.023 | 0.535 ± 0.017 | 0.455 ± 0.0098 | 1.02 ± 0.018 | 1.01 ± 0.022 | 1.03 ± 0.013 | 0.9914 ± 0.0016 | 1.06 ± 0.027 | 1.049 ± 0.0087 | 1.047 ± 0.0069 | 0.945 ± 0.051 |
| SUM159 BREAST | 1.12 ± 0.016 | 1.104 ± 0.0035 | 1.07 ± 0.013 | 1.06 ± 0.011 | 1.079 ± 0.0027 | 1.057 ± 0.0089 | 1.04 ± 0.013 | 0.957 ± 0.031 | 1.08 ± 0.012 | 1.15 ± 0.11 | 1.11 ± 0.048 | 1.13 ± 0.11 | 1.11 ± 0.079 | 1.1 ± 0.023 | 1.13 ± 0.11 | 1.05 ± 0.029 |
| HCT15 LARGE INTESTINE | 1.09 ± 0.078 | 1.03 ± 0.086 | 1.06 ± 0.015 | 0.945 ± 0.021 | 0.584 ± 0.14 | 0.44 ± 0.058 | 0.146 ± 0.022 | 0.102 ± 0.0078 | 1.05 ± 0.017 | 1.04 ± 0.061 | 1.05 ± 0.05 | 1.05 ± 0.052 | 1 ± 0.066 | 1.01 ± 0.041 | 1.05 ± 0.052 | 1.08 ± 0.017 |
| SG32 HEADNECK | 1.13 ± 0.067 | 0.975 ± 0.17 | 1.08 ± 0.29 | 0.985 ± 0.094 | 0.872 ± 0.12 | 1.22 ± 0.82 | 0.622 ± 0.0068 | 0.49 ± 0.044 | 1.16 ± 0.16 | 1.07 ± 0.2 | 1.12 ± 0.18 | 1.62 ± 0.39 | 0.939 ± 0.091 | 1.05 ± 0.047 | 0.74 ± 0.11 | 0.681 ± 0.082 |
| U2OS BONE | 0.9887 ± 0.0081 | 0.994 ± 0.055 | 0.969 ± 0.018 | 0.915 ± 0.029 | 0.834 ± 0.026 | 0.732 ± 0.029 | 0.658 ± 0.029 | 0.647 ± 0.038 | 1.06 ± 0.052 | 1.09 ± 0.057 | 1.08 ± 0.029 | 1.08 ± 0.025 | 1.1 ± 0.058 | 1.09 ± 0.061 | 1.03 ± 0.048 | 1.02 ± 0.05 |
| OS25HAL BONE | 1.1 ± 0.034 | 1.01 ± 0.037 | 0.96 ± 0.063 | 0.994 ± 0.017 | 0.91 ± 0.06 | 0.812 ± 0.014 | 0.327 ± 0.02 | 0.178 ± 0.021 | 1.02 ± 0.026 | 1.02 ± 0.031 | 1.02 ± 0.022 | 1.02 ± 0.016 | 1.019 ± 0.0078 | 1.01 ± 0.019 | 1.05 ± 0.02 | 1.02 ± 0.018 |
| C33A CERVIX | 0.995 ± 0.028 | 0.968 ± 0.019 | 0.744 ± 0.079 | 0.655 ± 0.046 | 0.422 ± 0.035 | 0.332 ± 0.051 | 0.19 ± 0.015 | 0.172 ± 0.023 | 0.963 ± 0.082 | 1.01 ± 0.1 | 1.06 ± 0.051 | 1.1 ± 0.074 | 1.06 ± 0.067 | 1.14 ± 0.14 | 0.973 ± 0.059 | 0.827 ± 0.1 |
| SKBR3 BREAST | 1.154 ± 0.0069 | 1.11 ± 0.12 | 0.863 ± 0.15 | 0.881 ± 0.044 | 0.774 ± 0.075 | 0.575 ± 0.078 | 0.492 ± 0.041 | 0.481 ± 0.014 | 1.06 ± 0.013 | 0.979 ± 0.19 | 0.937 ± 0.22 | 0.939 ± 0.088 | 0.9 ± 0.16 | 1.05 ± 0.13 | 0.886 ± 0.07 | 0.61 ± 0.033 |
| RDES SOFT TISSUE | 1.16 ± 0.1 | 1.38 ± 0.055 | 1.07 ± 0.022 | 1.09 ± 0.093 | 0.472 ± 0.077 | 0.137 ± 0.011 | 0.035 ± 0.001 | 0.0337 ± 0.0025 | 1.18 ± 0.1 | 1.15 ± 0.11 | 0.972 ± 0.078 | 1.08 ± 0.24 | 0.759 ± 0.24 | 0.786 ± 0.23 | 0.799 ± 0.17 | 0.912 ± 0.24 |
| 22RV1 PROSTATE | 1.06 ± 0.073 | 1.01 ± 0.11 | 0.871 ± 0.14 | 0.776 ± 0.18 | 0.657 ± 0.09 | 0.64 ± 0.037 | 0.468 ± 0.061 | 0.324 ± 0.048 | 1.07 ± 0.068 | 1.07 ± 0.021 | 1.02 ± 0.045 | 1.04 ± 0.044 | 1.12 ± 0.07 | 1.12 ± 0.074 | 1.08 ± 0.09 | 1.08 ± 0.031 |
| CASKI CERVIX | 0.942 ± 0.03 | 0.888 ± 0.063 | 0.9 ± 0.036 | 0.88 ± 0.06 | 0.858 ± 0.054 | 0.821 ± 0.068 | 0.594 ± 0.0084 | 0.502 ± 0.02 | 0.925 ± 0.041 | 0.982 ± 0.035 | 0.963 ± 0.019 | 0.989 ± 0.07 | 0.91 ± 0.047 | 0.855 ± 0.057 | 0.759 ± 0.04 | 0.625 ± 0.037 |
| HU09 BONE | 0.97 ± 0.066 | 0.978 ± 0.056 | 0.898 ± 0.067 | 0.812 ± 0.11 | 0.486 ± 0.046 | 0.437 ± 0.038 | 0.104 ± 0.018 | 0.058 ± 0.008 | 0.994 ± 0.096 | 0.996 ± 0.1 | 1.13 ± 0.061 | 1.1 ± 0.14 | 1.03 ± 0.12 | 1.42 ± 0.58 | 0.778 ± 0.065 | 0.763 ± 0.14 |
| MDAMB157 BREAST | 0.999 ± 0.13 | 0.944 ± 0.081 | 0.844 ± 0.084 | 0.795 ± 0.1 | 0.541 ± 0.01 | 0.392 ± 0.01 | 0.228 ± 0.017 | 0.257 ± 0.036 | 0.905 ± 0.074 | 0.972 ± 0.025 | 1.01 ± 0.057 | 1.09 ± 0.059 | 1 ± 0.028 | 1.05 ± 0.046 | 0.896 ± 0.022 | 0.89 ± 0.093 |
| NCIH441 LUNG | 1.11 ± 0.035 | 1.11 ± 0.081 | 1.01 ± 0.039 | 0.872 ± 0.037 | 0.78 ± 0.13 | 0.723 ± 0.1 | 0.584 ± 0.082 | 0.499 ± 0.083 | 1.04 ± 0.092 | 1.03 ± 0.085 | 0.957 ± 0.1 | 1.07 ± 0.062 | 1.11 ± 0.035 | 1.11 ± 0.087 | 1.02 ± 0.056 | 1.14 ± 0.11 |
| DU4475 BREAST | 1.1 ± 0.049 | 0.916 ± 0.11 | 0.57 ± 0.055 | 0.456 ± 0.071 | 0.325 ± 0.068 | 0.278 ± 0.054 | 0.284 ± 0.052 | 0.293 ± 0.027 | 1.12 ± 0.23 | 1.08 ± 0.011 | 0.951 ± 0.13 | 1.18 ± 0.12 | 0.794 ± 0.22 | 1.12 ± 0.36 | 1.31 ± 0.55 | 1.05 ± 0.23 |
| HT1080 SOFT TISSUE | 1 ± 0.037 | 0.967 ± 0.042 | 0.73 ± 0.024 | 0.524 ± 0.02 | 0.375 ± 0.018 | 0.312 ± 0.0085 | 0.204 ± 0.0027 | 0.187 ± 0.014 | 1.01 ± 0.026 | 1.04 ± 0.027 | 1.01 ± 0.04 | 1.02 ± 0.022 | 0.987 ± 0.054 | 1.01 ± 0.051 | 0.962 ± 0.016 | 0.846 ± 0.029 |
| MDAMB231 BREAST | 0.98 ± 0.029 | 0.972 ± 0.02 | 0.898 ± 0.019 | 0.838 ± 0.022 | 0.711 ± 0.053 | 0.639 ± 0.011 | 0.523 ± 0.021 | 0.454 ± 0.03 | 0.965 ± 0.015 | 0.955 ± 0.016 | 0.993 ± 0.035 | 0.988 ± 0.023 | 0.955 ± 0.016 | 0.981 ± 0.021 | 0.73 ± 0.027 | 0.617 ± 0.025 |
